In publication PMC11468294, “Peptide Amphiphiles as Biodegradable Adjuvants for Efficient Retroviral Gene Delivery” (Advanced Healthcare Materials, 2023):
“Also recorded” adds a separate entry of the source. Where a SMILES comes first, the peptide text is derived from it. The star is where a group is joined. X2 = CC/C=C\C/C=C\C/C=C\C/C=C\C/C=C\CCCC(=O)*; X1 = CC/C=C\C/C=C\C/C=C\CCCCCCCC(=O)*; Fmoc = O=C(OCC1c2ccccc2-c2ccccc21)*; Palmitoyl = CCCCCCCCCCCCCCCC(=O)*; Lauroyl = CCCCCCCCCCCC(=O)*

Tests used:
[1] = system: HIV-1 infection of TZM-bl cells; experiment: HIV-1 infection assay (β-galactosidase luminescence reporter); format: cell-based
Experimental: HIV‐1 Infection Assay: The effect of peptide fibrils on HIV‐1 infection was studied via a luminescence assay for β‐galactosidase, which was reported by TZM‐bl cells upon infection. 10000 TZM‐bl cells were seeded in 180 µl supplemented DMEM one day prior infection. The cells were inoculated with 20 µl PNF solution 1:1 (v/v) mixed with virus (1:500 dilution) after an incubation time of 10 min. The HIV‐1 infection assay was conducted in three technical replicates and repeated in three independent experiments unless stated otherwise. The assay was conducted as described before.^[ [20] ^]

[2] = Zeta-potential measurement; format: physicochemical; conditions: 1 mg mL-1 in PBS, diluted in 1 mM KCl
Experimental: Zeta‐potential: 60 µL of the peptides (1 mg mL^−1) were diluted in 600 µL, 1 mM KCl solution and placed in a disposable folded capillary cuvette. All zeta‐potential measurements (Zetasizer, Malvern Instruments) were conducted in triplicates for each sample.

[3] = TEM morphology of peptide assemblies; format: physicochemical; conditions: diluted from DMSO stock (10 mg mL-1) to 1 mg mL-1 in PBS, incubated 1 d at rt
Experimental: (§1) Transmission electron microscopy (TEM) measurements, Thioflavin (ThT), zeta‐potential measurements for fibril characterization, ATR‐IR spectra acquisition and the calculation of β−sheet were prepared and conducted analogous to a previous report.^[ [20], [86] ^] […] Fibrils were defined as distinct, if no visible structures could be identified in fluorescence and brightfield microscopy. […] The derived count rate of the zeta‐potential measurement was used as information on the light scattering intensity and turbidity of the sample as a further indicator for microscopic aggregation.^[ [90] ^]
TEM: 5 µL of fibrils (1 mg mL^−1) were placed on 300 mesh, Formvar layered copper grids. After 10 min incubation time, the grids were staining with 4% uranyl acetate solution for 2.5 min. After
three washing steps with dd H2O excess solvent was removed by filter paper. Measurements
were performed on a Jeol 1400 electron microscope with 120 kV acceleration voltage.

[4] = Microscopic aggregation (fluorescence / confocal microscopy, derived count rate); format: physicochemical; conditions: fibrils preformed at 1 mg mL-1 in PBS; ThT or Proteostat stain, widefield or confocal microscopy; derived count rate > 1000 kcps as criterion
Experimental: as §1
Fluorescence microscopy: 1 µL Fibrils (1 mg mL^−1) were stained with 9 µL, 50 µM ThT. 10 µL of the stained fibrils (0.1 mg mL^−1) were placed on a microscopy glass. Fluorescence microscopy measurements were performed on a Leica DMi8 microscope with 10x air objective and equipped with a Leica MC170 HD camera with a filter setting λem = 527/30 nm upon excitation at λex = 480/40 nm) and processed with the Leica LASX software.
(§2) 7 Effects of PA modifications on properties and activity
(§3) To investigate the effects of modification in the PA sequence, we created various peptide amphiphiles derived from PA1 by varying the (I) hydrophobic moiety, (II) the linkage chemistry and (III) the peptide sequence (Figure S12, SI chapter 7.1 – 7.3). The color code for sequence representation is yellow for the hydrophobic moiety, blue for cationic amino acids, red for non-polar amino acids, purple for polar uncharged amino acids, and green for anionic amino acids. To be concise, only the summarized information will be discussed, all original data for the peptides are summarized in the (Figure S26 - […]
(§4) Figure S12 Summarized overview of peptide amphiphile library in which systematic variations the original sequence […]
(§5) chemistry and (III) the peptide sequence on infectivity enhancement and degradability (see SI chapter 7.1 – 7.3).
(§6) In the following section a compound is considered infectivity enhancing if n-fold infectivity at 1.3 µM is larger than 2. A compound is considered to form µm-sized aggregates if visible particles were observed in widefield microscopy (brightfield or ThT-staining filter, objective 10x) or confocal […]
(§7) than 1000 kcps in Zeta-Potential measurements.
(§8) For the degradability only the PAs which could be stained with Proteostat (Figure S26) and were visible in microscopy (Figure S15, Figure S18, Figure S21, and Figure S22) were studied in detail. To determine […]
whether a PA is degraded or not, Proteostat stained PAs which are added to Hela cells (2 µg peptide added to 20.000 cells) and studied via confocal laser scanning microscopy. […]
In the following, we will distinguish between three aggregation types for fibrillar structures: Fibrils which were not aggregating (below resolution limit of the microscope, approx. 650 nm), moderately aggregating (< 50 µm2) and aggregating to large particles (> 50 µm 2).
7.1 Effects of hydrophobic moiety exchange on properties and activity
To investigate the effects of varying hydrophobic moieties on assembly, aggregation and activity , we

[5] = system: HeLa cells; format: in vitro ADME; conditions: for degradability by cells (in words): HeLa cells, 2 µg peptide added to 20,000 cells, d0 (30 min) vs d3, degradable if number and size of aggregates are reduced after 3 days
Experimental: Confocal laser scanning microscopy and degradation study with PA library and HeLa cells: Confocal laser scanning microscopy studies were performed for the visualization of the cell‐PA interaction. HeLa cells were seeded one day prior to conducting the assay (20000/well) in an 8‐well IBIDI slide. 2 µL of the preformed peptide fibrils (1 mg mL^−1) were diluted with 2 µL Proteostat (Enzo Life Science, 1 µL stock in 99 µL PBS) and incubated for 10 min and further diluted with medium to receive a final peptide concentration of 10 µg mL^−1. The nucleus of the HeLa cells was stained with Hoechst 33 342 (NucBlue, Thermo Fisher Scientific). The peptide solution mixture was transferred to the HeLa cells and incubated for 30 min at 37°C before washing three times with PBS. The interaction of fibril clusters with cells was monitored after 30 min incubation time on a Stellaris 8 confocal laser scanning microscope (Leica) equipped with a 20x air objective and laser excitation wavelengths of 405 nm (Hoechst), and 561 nm (Proteostat). For the evaluation of aggregate degradation, the samples were further incubated at 37°C for 3 d and analyzed without any additional washing step. The evaluation of aggregate size and number was conducted by analyzing Proteostat stained aggregates via the 3D objects counter function of ImageJ 1.53f51 for 3 individual measurements (area 1008 µm × 1008 µm). […] The number of aggregates were determined by counting aggregates larger than the threshold 10 µm^2 in an area of 1008 µm × 1008 µm and repeated in three technical triplicates.
as §2, §3, §4, §5, §6, §7, §8
whether a PA is degraded or not, Proteostat stained PAs which are added to Hela cells (2 µg peptide added to 20.000 cells) and studied via confocal laser scanning microscopy. Microscopy is conducted at day 0 (d0, after 30 min of incubation) and at day 3 (d3, after 72 h of incubation). The number of aggregates >10 µm2 is counted via 3D object counter in ImageJ in an area of 1008 µm × 1008 µm.
A PA is considered as degradable if the number and the size of aggregates are reduced after 3 days.
The efficiency is determined by the percentual degradation (aggregate number at d3 / aggregate number at d0). Three technical replicates were evaluated for each sample. A large deviation in number and size of aggregates represents a nonhomogeneous distribution and polymorphism of aggregates.

[6] = infectivity enhancing if n-fold at 1.3 µM larger than 2

## CC/C=C\C/C=C\C/C=C\CCCCCCCC(=O)N[C@H](C(=O)N[C@H](C(=O)N[C@H](C(=O)N[C@@H](C)C(=O)N[C@@H](C)C(=O)N[C@@H](C)C(=O)N[C@@H](CCCCN)C(=O)N[C@@H](CCCCN)C(=O)N[C@@H](CCCCN)C(N)=O)C(C)C)C(C)C)C(C)C (X1-VVVAAAKKK-NH2)
[1]; [6]
  infectivity enhancement of HIV-1 (in words): Inactive
[1]; infectivity enhancing if n-fold at 1.3 µM larger than 2, listed as alpha linolenic acid
  infectivity enhancement of HIV-1 (in words): not able to maintain activity
[2]
  zeta-potential (in words): neutral zeta-potential
[3]
  morphology of peptide assemblies / fibril formation (TEM): cannot self‐assemble into fibrils
[3]; listed as alpha linolenic acid
  morphology of peptide assemblies / fibril formation (TEM): neither forming fibrils, nor it is aggregating or active
[4]
  formation of µm-sized aggregates (in words): do not aggregate

## CCCCCCCCCCCC(=O)N[C@H](C(=O)N[C@H](C(=O)N[C@H](C(=O)N[C@@H](C)C(=O)N[C@@H](C)C(=O)N[C@@H](C)C(=O)N[C@@H](CCCCN)C(=O)N[C@@H](CCCCN)C(=O)N[C@@H](CCCCN)C(N)=O)C(C)C)C(C)C)C(C)C [C12] (Lauroyl-VVVAAAKKK-NH2)
[1]; [6]
  infectivity enhancement of HIV-1 (in words): efficient infectivity enhancement
[5]
  degradability by cells (in words): partially degraded
[4]
  formation of µm-sized aggregates (in words): large aggregate formation

## CC(C)[C@H](NC(=O)OCC1c2ccccc2-c2ccccc21)C(=O)N[C@H](C(=O)N[C@H](C(=O)N[C@@H](C)C(=O)N[C@@H](C)C(=O)N[C@@H](C)C(=O)N[C@@H](CCCCN)C(=O)N[C@@H](CCCCN)C(=O)N[C@@H](CCCCN)C(N)=O)C(C)C)C(C)C (Fmoc-VVVAAAKKK-NH2)
[1]; [6]
  infectivity enhancement of HIV-1 (in words): active
[5]
  degradability by cells (in words): cannot be degraded by cells
[3]
  morphology of peptide assemblies / fibril formation (TEM): forming fibrils
[4]
  formation of µm-sized aggregates (in words): very large

## CCCCCCCCCCCCCCCC(=O)NCC(=O)NCC(=O)NCC(=O)N[C@@H](CO)C(=O)N[C@@H](CO)C(=O)N[C@@H](CCCCN)C(=O)N[C@@H](CCCCN)C(=O)N[C@@H](CCCCN)C(N)=O (Palmitoyl-GGGSSKKK-NH2)
[1]; [6]
  infectivity enhancement of HIV-1 (in words): Inactive
[4]
  formation of µm-sized aggregates (in words): not forming µm-sized aggregates and forming too few/less aggregates, respectively; also recorded: cannot form µm‐sized aggregates

## CCCCCCCCCCCCCCCC(=O)NCC(=O)N[C@@H](CCCCN)C(=O)N[C@H](C(=O)NCC(=O)N[C@@H](CO)C(=O)N[C@@H](CCCCN)C(N)=O)C(C)C [C16-GKVGSK-NH2] (Palmitoyl-GKVGSK-NH2)
[1]; [6]
  infectivity enhancement of HIV-1 (in words): Inactive
[4]
  formation of µm-sized aggregates (in words): cannot form µm‐sized aggregates

## CCCCCCCCCCCCCCCC(=O)NCC(=O)NCC(=O)N[C@H](C(=O)N[C@H](C(=O)N[C@@H](CCCNC(=N)N)C(=O)N[C@@H](CCCNC(=N)N)C(N)=O)C(C)C)C(C)C [C16-GGVVRR-NH2] (Palmitoyl-GGVVRR-NH2)
[1]; [6]
  infectivity enhancement of HIV-1 (in words): Inactive
[4]
  formation of µm-sized aggregates (in words): not forming µm-sized aggregates and forming too few/less aggregates, respectively; also recorded: cannot form µm‐sized aggregates

## CCCCCCCCCCCCCCCC(=O)N[C@@H](Cc1c[nH]c2ccccc12)C(=O)N[C@@H](CCC(=O)O)C(=O)N[C@@H](C)C(=O)N[C@@H](CC(C)C)C(=O)N[C@@H](CCCCN)C(=O)N[C@@H](CCCCN)C(N)=O [C16-WEALKK-NH2] (Palmitoyl-WEALKK-NH2)
[1]; [6]
  infectivity enhancement of HIV-1 (in words): Inactive
[3]
  morphology of peptide assemblies / fibril formation (TEM): not forming fibrils; also recorded: cannot self‐assemble into fibrils
[4]
  formation of µm-sized aggregates (in words): not forming µm-sized aggregates and forming too few/less aggregates, respectively

## CC/C=C\C/C=C\C/C=C\C/C=C\C/C=C\CCCC(=O)N[C@H](C(=O)N[C@H](C(=O)N[C@H](C(=O)N[C@@H](C)C(=O)N[C@@H](C)C(=O)N[C@@H](C)C(=O)N[C@@H](CCCCN)C(=O)N[C@@H](CCCCN)C(=O)N[C@@H](CCCCN)C(N)=O)C(C)C)C(C)C)C(C)C (X2-VVVAAAKKK-NH2)
[5]
  degradability by cells (in words): degradable PA
[5]; Proteostat-stained PA with HeLa cells, confocal aggregate analysis
  average size of aggregates: 6-7 µm2
[3]
  morphology of peptide assemblies / fibril formation (TEM): structures composed of fibrillar structures

## CCCCCCCCCCCCCCCC(=O)N[C@@H](CCCCN)C(=O)NCC(=O)N[C@H](C(=O)N1CCC[C@H]1C(=O)NCC(=O)N[C@H](C(=O)NCC(=O)N[C@@H](CCCCN)C(N)=O)C(C)C)C(C)C (Palmitoyl-KGVPGVGK-NH2)
[1]; [6]
  infectivity enhancement of HIV-1 (in words): Inactive
[3]
  morphology of peptide assemblies / fibril formation (TEM): not forming fibrils; also recorded: cannot self‐assemble into fibrils
[4]
  formation of µm-sized aggregates (in words): not forming µm-sized aggregates and forming too few/less aggregates, respectively

## CCCCCCCCCCCCCCCC(=O)N[C@@H](CCCNC(=N)N)C(=O)N[C@@H](CCCNC(=N)N)C(=O)N[C@@H](Cc1c[nH]c2ccccc12)C(=O)N[C@@H](CCC(N)=O)C(=O)N[C@@H](Cc1c[nH]c2ccccc12)C(=O)N[C@@H](CCCNC(=N)N)C(N)=O [C16-RRWQWR-NH2] (Palmitoyl-RRWQWR-NH2)
[1]; [6]
  infectivity enhancement of HIV-1 (in words): Inactive
[4]
  formation of µm-sized aggregates (in words): not forming µm-sized aggregates and forming too few/less aggregates, respectively; also recorded: cannot form µm‐sized aggregates
